Like-named read-outs stand apart in the source and are kept apart here.
Assays:
A375 melanoma cells = test: SRB cytotoxicity assay, A375; format: cell-based; conditions: Homo sapiens, read-out: IC50 A375
Description: (§1) All of the compounds were dissolved in dimethyl sulfoxide (DMSO) to achieve a 20 mM stock solution. Cells were seeded in cell culture flasks 24 h before treatment. The treatment was performed for 24 h.
(§2) The cytotoxicity of the drugs was determined in 2D tumor models using sulforhodamine B (SRB) assays. Treatment started 24 h after seeding the tumor cells in 96-well plates as previously described.

[1] = test system: MCF-7 breast cancer cells; test: SRB cytotoxicity assay, MCF-7; format: cell-based; conditions: Homo sapiens, read-out: IC50 MCF-7
Description: as §1, §2

[2] = test system: A2780 ovarian cancer cells; test: SRB cytotoxicity assay, A2780; format: cell-based; conditions: Homo sapiens, read-out: IC50 A2780
Description: as §1, §2

MCF-7 cells [3] = test: Annexin V / propidium iodide assay, MCF-7; format: cell-based, human; conditions: double the IC50 concentration
Description: The Annexin V assays were performed as previously described.
Compounds 3, 5, and 9 were used to study cell death mechanisms and cell cycle analysis. A feature that can be used as it is only characteristic of apoptotic but not necrotic cells is Annexin V staining. During apoptosis, in addition to cell shrinkage, chromatin condensation, and the formation of apoptotic bodies, phosphatidylserine, which is originally inside the membrane, is translocated to the outside. There is a rapid change in phospholipid symmetry in the cell membrane, a process occurring so rapidly that the barrier function of the cell membrane is initially still present. The cellular protein Annexin V can bind to the displaced phosphatidylserine in the presence of calcium. To test for the presence of the cell membrane barrier, the non-membrane-permeable dye propidium iodide was added, which intercalates into the DNA. The flow cytometric data were divided into four areas (live cells, early and late apoptotic cells, and necrotic cells). Untreated cells were used as controls. The results are depicted in Figure 3. […] Even after 48 h, no significant difference between compound 3 and 5 was detected (55–60% live cells, 8% early apoptotic cells, 28–36% late apoptotic cells, 0.5–3% necrotic cells). […] Since both compounds are sulfonamides of betulin, the similar results are not surprising.

MCF-7 cells [4] = test: Cell cycle analysis, MCF-7; format: cell-based, human; conditions: double the IC50 concentration
Description: (§3) Cell cycle analyses were performed as previously described.
(§4) Changes in the genetic material and the resulting mutations, which can affect the formation of tumors, usually occur during the proliferation process in the cell. A human cell passes through all four phases of this cell cycle within 20 h, with the set of its chromosomes varying between single and double. During apoptosis, fragmentation of DNA occurs along with an associated decrease in chromosome content. Fixation of cells with ethanol leads to permeabilization of the cell membrane and thus to loss of smaller DNA fragments, so that apoptotic cells contain less than the single set of chromosomes detected by a SubG1 peak. Given the different amounts of DNA in the cells and the proportional binding of propidium iodide to the DNA, the different fluorescence intensities can be used to infer the distribution of cells in the respective phases of the cell cycle.
The MCF-7 breast cancer cell line was used in the experiments. An untreated sample was also included in the cell cycle analysis as a control. The results are depicted in Figure 4.

A375 cells = test: Cell cycle analysis, A375; format: cell-based, human; conditions: double the IC50 concentration
Description: as §3, §4
In addition, after 48 h of treatment, there was a decrease in the S and M phases for all treatments, which is similar to that noted after 24 h. […] As in the 24 and 48 h tests, there was a decrease in M- and S-phase cells and an increase in G1/G0 phase cells after 72 h compared with the untreated control. Several independent experiments by different groups show similar results with MCF-7 [42, 43, 44]. Due to a lack of DNA fragmentation in MCF-7 cells, the human melanoma cell line A375 was used as a second cell line for comparison (Figure 4d). […] The effect of compound 3 is even more pronounced with an incubation time of 48 or 72 h. An increase in the SubG1 peak was observed from 0.7% in the control to up to 60% after 72 h of treatment.

[5] = test system: tumor cell lines (2D and 3D tumor models); test: Cytotoxicity summarised across tumor models; format: cell-based; conditions: Homo sapiens
Description: as §2
(§5) To determine cytotoxicity in the 3D tumor models, spheroid cytotoxicity assays were performed as previously described. The luciferase-expressing, breast cancer cell lines MDA-MB-231 and Hs578T and derived spheroids were cultivated in RPMI medium (Sigma-Aldrich, Taufkirchen, Germany) containing 10% fetal bovine serum (BioWest, Nuaillé, France) and 10% penicillin/streptomycin (Sigma-Aldrich) at 37 °C/5% CO2 in a humid atmosphere. For generation of single tumor spheroids, tumor cells resuspended in culture medium were seeded into 96-well plates, which were coated before with 0.7% agarose (SeaKem® GTG™ Agarose, Lonza, Basel, Switzerland). After the formation of spheroids (48 h), they were treated with serial dilutions of compounds. Measurements of luciferase activity were performed on day 7, after supplementation with D-luciferin (Perkin Elmer, Rodgau, Germany), on a Tecan Spark microplate reader (Tecan, Männedorf, Switzerland). Generation of dose-response curves and calculation of IC50 values including standard deviations were accomplished using GraphPad Prism8.

[6] = target: recombinant human carbonic anhydrase IX (Homo sapiens, UniProt Q16790); test: hCA IX esterase assay with p-nitrophenyl acetate; conditions: for Ki relative to the unconjugated inhibitors: higher Ki than unconjugated inhibitors
Description: In this measurement, the enzymatically catalyzed hydrolysis of p-nitrophenyl acetate to p-nitrophenol was investigated. […] This was followed by measurement of the v-S-characteristics with inhibitor. […] For each run, 2 experimental series (biological replicate) were prepared simultaneously and measured for 10 min at a measurement interval of 8 s, also as a two-fold determination (technical replicate). […] The resulting reaction velocities, calculated from a calibration curve with p-nitrophenole under the same conditions, were plotted against the substrate concentration. The kinetic evaluation for competitive inhibition was then performed with the program GraphPad Prism.

MDA-MB-231 spheroids = test: Spheroid cytotoxicity assay (luciferase), MDA-MB-231; format: cell-based, human; conditions: Homo sapiens, MDA-MB-231, 168 h, read-out: IC50 MDA-MB-231 spheroids
Description: as §5, with “The luciferase-expressing, breast cancer cell lines MDA-MB-231 and Hs578T and derived spheroids were cultivated in RPMI medium (Sigma-Aldrich, Taufkirchen, Germany) containing 10% fetal bovine serum (BioWest, Nuaillé, France) and 10% penicillin/streptomycin (Sigma-Aldrich) at 37 °C/5% CO2 in a humid atmosphere.” left out
(§6) Since the tumor cells stably express luciferase, analysis of spheroid growth and response to therapy is accomplished by measurement of bioluminescent signal intensity.

Hs578T spheroids = test: Spheroid cytotoxicity assay (luciferase), Hs578T; format: cell-based, human; conditions: for IC50: Homo sapiens, Hs-578T, 168 h, read-out: IC50 Hs578T spheroids
Description: as §5, with “The luciferase-expressing, breast cancer cell lines MDA-MB-231 and Hs578T and derived spheroids were cultivated in RPMI medium (Sigma-Aldrich, Taufkirchen, Germany) containing 10% fetal bovine serum (BioWest, Nuaillé, France) and 10% penicillin/streptomycin (Sigma-Aldrich) at 37 °C/5% CO2 in a humid atmosphere.” left out
as §6

[7] = A-375, SRB assay, 96 h incubation, mean ± SD
[8] = MCF7, SRB assay, 96 h incubation, mean ± SD
[9] = A2780, SRB assay, 96 h incubation, mean ± SD
[10] = SRB assays, A375, MCF-7, A2780, read-out: IC50 values (range over cell lines of Table 1)
[11] = read-out: cytotoxicity range in 2D and 3D tumor models
[12] = 7 days of treatment, 3 independent experiments

Row | Compound | IC50 (A375 melanoma cells; [7]) | IC50 [1, 8] | IC50 [2, 9] | late apoptotic cells (MCF-7 cells [3]; MCF-7, 24 h) | early apoptotic cells (MCF-7 cells [3]; MCF-7, 48 h) | cells in SubG1 phase (MCF-7 cells [4]; MCF-7, 72 h) | IC50 [5, 10] | IC50 [5, 11] | Ki [6] | Ki relative to the unconjugated inhibitors [6] | other results
1 | C=C(C)C1CCC2(C(=O)NCCS(N)(=O)=O)CCC3(C)C(CCC4C5(C)CCC(OC(C)=O)C(C)(C)C5CCC43C)C12 (stereo not drawn) [Compound 3, (3β)-28-{[2-(Aminosulfonyl)-ethyl]-amino}28-oxolup-20(29)-en-3-yl Acetate] | 6.4 ± 0.7 µM | 7.5 ± 0.7 µM | 10.4 ± 0.8 µM | 16% | 8% | 8.1% | 6.4 to 11.4 µM | 6.4 to 30.1 µM | 1.04 ± 0.39 µM | approximately 10 fold | early apoptotic cells (MCF-7 cells [3]; MCF-7, 72 h): 9%; late apoptotic cells (MCF-7 cells [3]; MCF-7, 72 h): 53%; live cells (MCF-7 cells [3]; MCF-7, 72 h): 34%; necrotic cells (MCF-7 cells [3]; MCF-7, 72 h): 4.5%; cells in G1/G0 phase (A375 cells; A375, 24 h): 46.9%; cells in M phase (A375 cells; A375, 24 h): 15.8%; cells in S phase (A375 cells; A375, 24 h): 21.2%; cells in SubG1 phase (A375 cells; A375, 24 h): 11.9%; SubG1 peak (A375 cells; A375, 72 h, control 0.7%): up to 60%
2 | C=C(C)C1CCC2(COC(=O)CCC(=O)O)CCC3(C)C(CCC4C5(C)CCC(OC(C)=O)C(C)(C)C5CCC43C)C12 (stereo not drawn) [Compound 4, 4-{[(3beta)-3-(Acetyloxy)-lup-20(29)-en-28-yl]-oxy}-4-oxobutanoic Acid] | 12.1 ± 1.5 µM | 9.8 ± 0.6 µM | 12.3 ± 3.9 µM |  |  |  |  |  |  |  | melting point: 122 to 125 °C
3 | C=C(C)C1CCC2(COC(=O)CCC(=O)NCCS(N)(=O)=O)CCC3(C)C(CCC4C5(C)CCC(OC(C)=O)C(C)(C)C5CCC43C)C12 (stereo not drawn) [Compound 5, (3β)-3-(Acetyloxy)-lup-20(29)-en-28-yl 4-{[2-(aminosulfonyl)-ethyl]amino}-4-oxobutanoate] | 9.4 ± 0.5 µM | 8.6 ± 0.7 µM | 11.4 ± 1.4 µM | 16% | 8% | 12.1% | 6.4 to 11.4 µM | 6.4 to 30.1 µM | 1.1 ± 0.31 µM | approximately 10 fold | IC50 (MDA-MB-231 spheroids; [12]): 10.3 ± 2.7 µM; IC50 (Hs578T spheroids; [12]): 30.1 ± 0.7 µM; resistance of Hs578T spheroids versus MDA-MB-231 spheroids (Hs578T spheroids; difference of spheroid IC50 values): only about three-fold differences; effect on cell viability (Annexin V) (MCF-7 cells [3]; MCF-7, 72 h): comparably strong effect; cells in G1/G0 phase (MCF-7 cells [4]; MCF-7, 48 h): 83.9%; cells in M phase (MCF-7 cells [4]; MCF-7, 48 h): 5.8%; cells in S phase (MCF-7 cells [4]; MCF-7, 48 h): 1.8%; cells in SubG1 phase (MCF-7 cells [4]; MCF-7, 48 h): 8.1%
4 | Nc1nnc(S(N)(=O)=O)s1 [Compound 6, 5-Amino-1,3.4-thiadiazole-2-sulfonamide] | > 100 µM | > 100 µM | > 100 µM |  |  |  |  |  |  |  | 
5 | NS(=O)(=O)c1nnc(NC(=O)CCC(=O)O)s1 [Compound 7, 4 {[5-(Amino sulfonyl)-1,3,4-thiadiazol-2-yl]-amino}-4-oxobutanoic Acid] |  |  |  |  |  |  |  |  |  |  | IC50 (A375 melanoma cells; A-375, 96 h): > 100 µM; IC50 ([1]; MCF7, 96 h): > 100 µM; IC50 ([2]; A2780, 96 h): > 100 µM; IC50 (MDA-MB-231 spheroids): > 100 µM; IC50 (Hs578T spheroids): > 100 µM

Source: publication PMC10974084, “Combination of Betulinic Acid Fragments and Carbonic Anhydrase Inhibitors—A New Drug Targeting Approach” (Pharmaceutics, 2024)
